We go through one molecule from ChEMBL document CHEMBL5050831, “Substituted quinoxaline derivatives as inhibitors of pfkfb” (2019).

The series can be described thus: Metabolic stability in human liver microsomes at […] in presence of NADPH assessed as intrinsic clearance. In kind it is ADME, Microsome. To be noted: read-out: CLH. On the technique in general: Liver microsomes are vesicles of endoplasmic reticulum, rich in cytochrome P450 enzymes.

As for `CC(C)[C@H](Nc1cc(-c2ccc3ccn(C)c3c2)c2nccnc2c1)c1cccnc1`, the microsomal CLint amounted to 85 µL/min/mg.
